Measured values taken from PubChem BioAssay (NCI).
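Dose response: 5 concentrations. Exposure: 48 h. Format: 96-well plates. Endpoint: linear interpolation; highest concentration if not reached. Here, GI50 denotes the concentration required for 50% inhibition of growth. TGI is the concentration that stops growth completely.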

Legend:
Test in all cases: growth of human tumour cells (NCI), 48 h; in the data active means GI50 below about 0.43 µM; inactive means the rest
MALME-3M melanoma = tested on: MALME-3M melanoma
SW-620 colon = tested on: SW-620 colon
U251 CNS = tested on: U251 CNS
MDA-N = tested on: MDA-N
UACC-257 melanoma = tested on: UACC-257 melanoma
M14 melanoma = tested on: M14 melanoma
HOP-92 NSCLC = tested on: HOP-92 NSCLC
T-47D breast = tested on: T-47D breast
TK-10 renal = tested on: TK-10 renal
SNB-78 CNS = tested on: SNB-78 CNS
DLD-1 colon = tested on: DLD-1 colon
HS 578T breast = tested on: HS 578T breast

Cc1ccc(Nc2nc(N)nc3c2ncn3C2OC(CO)C(O)C2O)cc1 (stereo unspecified)
> 100 µM: TGI (MALME-3M melanoma) | TGI (SW-620 colon) | TGI (U251 CNS) | TGI (MDA-N) | TGI (UACC-257 melanoma) | TGI (M14 melanoma) | TGI (HOP-92 NSCLC) | TGI (T-47D breast) | TGI (TK-10 renal)

C(=NCc1ccccc1)c1ccccc1-c1ccccc1C=NCc1ccccc1
7.53 µM: TGI (UACC-257 melanoma)
> 10 µM: TGI (MALME-3M melanoma) | TGI (SW-620 colon) | TGI (U251 CNS) | TGI (MDA-N) | TGI (M14 melanoma) | TGI (HOP-92 NSCLC) | TGI (T-47D breast) | TGI (TK-10 renal)

N=C(N)c1csc([C@@H]2O[C@H](CO)[C@@H](O)[C@H]2O)n1
> 100 µM: TGI (SNB-78 CNS) | TGI (MALME-3M melanoma) | TGI (SW-620 colon) | TGI (U251 CNS) | TGI (DLD-1 colon) | TGI (UACC-257 melanoma) | TGI (M14 melanoma) | TGI (TK-10 renal)

CC(C)(C)[Si](C)(C)OCC1CCC(n2cnc3c(N)ncnc32)O1 (stereo unspecified)
> 100 µM: TGI (SW-620 colon) | TGI (U251 CNS) | TGI (MDA-N) | TGI (UACC-257 melanoma) | TGI (M14 melanoma) | TGI (HOP-92 NSCLC) | TGI (HS 578T breast) | TGI (T-47D breast) | TGI (TK-10 renal)

Cc1cccc2[s+]snc12
> 100 µM: TGI (SNB-78 CNS) | TGI (U251 CNS) | TGI (UACC-257 melanoma) | TGI (M14 melanoma) | TGI (TK-10 renal)
44.9 µM: TGI (HOP-92 NSCLC)
> 67.3 µM: TGI (MALME-3M melanoma)
48.9 µM: TGI (SW-620 colon)
74.9 µM: TGI (DLD-1 colon)

COC(=O)c1ccc(N=NN(C)COc2ccc([N+](=O)[O-])cc2)cc1
> 100 µM: TGI (SNB-78 CNS) | TGI (MALME-3M melanoma) | TGI (SW-620 colon) | TGI (U251 CNS) | TGI (DLD-1 colon) | TGI (UACC-257 melanoma) | TGI (HOP-92 NSCLC)

O=C(O)C1Cc2c([nH]c3ccccc23)C=N1 (stereo unspecified)
> 100 µM: TGI (SNB-78 CNS) | TGI (MALME-3M melanoma) | TGI (SW-620 colon) | TGI (U251 CNS) | TGI (DLD-1 colon) | TGI (UACC-257 melanoma) | TGI (HOP-92 NSCLC)

O=C1c2ccccc2-c2ccc(N=Nc3c(O)ccc4ccccc34)cc21
> 100 µM: TGI (MALME-3M melanoma) | TGI (SW-620 colon) | TGI (U251 CNS) | TGI (MDA-N) | TGI (UACC-257 melanoma) | TGI (M14 melanoma) | TGI (HOP-92 NSCLC) | TGI (HS 578T breast) | TGI (T-47D breast) | TGI (TK-10 renal)

COc1cc(C2=C(C#N)C(N)OC3=C2COc2ccccc23)cc(OC)c1OC (stereo unspecified)
32.3 µM: TGI (MALME-3M melanoma)
30.2 µM: TGI (TK-10 renal)
> 100 µM: TGI (SW-620 colon) | TGI (MDA-N) | TGI (UACC-257 melanoma) | TGI (M14 melanoma) | TGI (HOP-92 NSCLC)
33.2 µM: TGI (U251 CNS)

C/C(=N/O)c1cccc(Nc2nc3ccc(Cl)cc3c3[nH]c4ccccc4c23)c1
7.09 µM: TGI (HS 578T breast)
3.54 µM: TGI (M14 melanoma)
6.51 µM: TGI (TK-10 renal)
5.03 µM: TGI (SW-620 colon)
9.94 µM: TGI (U251 CNS)
12.1 µM: TGI (UACC-257 melanoma)
4.05 µM: TGI (MDA-N)
3.5 µM: TGI (T-47D breast)

c1cn2cc(-c3ccc4ncn(C5CCCCC5)c4c3)nc(-c3ccc4c(c3)ncn4C3CCCCC3)c2n1
inactive: GI50 (MALME-3M melanoma) 2.11 µM | GI50 (U251 CNS) 1.91 µM | GI50 (UACC-257 melanoma) 2.1 µM | GI50 (HOP-92 NSCLC) 1.54 µM | GI50 (HS 578T breast) 2.39 µM | GI50 (T-47D breast) 1.9 µM
4.69 µM: TGI (T-47D breast)
3.62 µM: TGI (UACC-257 melanoma)
3.75 µM: TGI (MALME-3M melanoma)
6.74 µM: TGI (HS 578T breast)
3.65 µM: TGI (U251 CNS)
3.22 µM: TGI (HOP-92 NSCLC)

CC12CCC(C(=O)N3CC=CCC3)(OC1=O)C2(C)C (stereo unspecified)
> 100 µM: TGI (SNB-78 CNS) | TGI (MALME-3M melanoma) | TGI (SW-620 colon) | TGI (U251 CNS) | TGI (DLD-1 colon) | TGI (UACC-257 melanoma) | TGI (HOP-92 NSCLC)

CCC(=O)NC(Nc1ccc(O)cc1)(C(F)(F)F)C(F)(F)F
> 100 µM: TGI (MALME-3M melanoma) | TGI (U251 CNS) | TGI (UACC-257 melanoma) | TGI (M14 melanoma) | TGI (HS 578T breast) | TGI (T-47D breast) | TGI (TK-10 renal)
35.3 µM: TGI (MDA-N)

O=[N+]([O-])c1ccc(Nc2nc3ccccc3s2)cc1
60.9 µM: TGI (HOP-92 NSCLC)
75.6 µM: TGI (UACC-257 melanoma)
46.1 µM: TGI (MALME-3M melanoma)
88 µM: TGI (TK-10 renal)
> 100 µM: TGI (SW-620 colon) | TGI (M14 melanoma) | TGI (HS 578T breast)
14 µM: TGI (T-47D breast)
39.3 µM: TGI (U251 CNS)

Nc1ccc2c3c(n(CCCCl)c(=O)c2c1)-c1cc2c(cc1C3=O)OCO2
inactive: GI50 (MALME-3M melanoma) 7.79 µM | GI50 (SW-620 colon) > 100 µM | GI50 (U251 CNS) > 100 µM | GI50 (UACC-257 melanoma) > 100 µM | GI50 (HOP-92 NSCLC) > 100 µM | GI50 (T-47D breast) > 100 µM | GI50 (TK-10 renal) > 100 µM
> 100 µM: TGI (MALME-3M melanoma) | TGI (SW-620 colon) | TGI (U251 CNS) | TGI (UACC-257 melanoma) | TGI (HOP-92 NSCLC) | TGI (T-47D breast) | TGI (TK-10 renal)

O=C1C(=O)c2ccccc2C(O)=C1CN(CCCl)CCCl
> 100 µM: TGI (SNB-78 CNS) | TGI (MALME-3M melanoma) | TGI (SW-620 colon) | TGI (U251 CNS) | TGI (DLD-1 colon) | TGI (M14 melanoma) | TGI (HOP-92 NSCLC) | TGI (TK-10 renal)

COC1CC(OC2CCC3(C)C(CCC45CCC(C6=CC(=O)OC6)C(C)(CCC43)C5=O)C2)OC(C)C1O (stereo unspecified)
> 100 µM: TGI (SW-620 colon) | TGI (U251 CNS) | TGI (MDA-N) | TGI (UACC-257 melanoma) | TGI (M14 melanoma) | TGI (HOP-92 NSCLC) | TGI (HS 578T breast) | TGI (T-47D breast) | TGI (TK-10 renal)
